From patent US20060074061A1, “Formulations of glucocorticoids to treat pathologic ocular angiogenesis” (priority 2003, published 2006) come the findings set out here.

This experiment in a line: Topical anecortave acetate in patients with glucocorticoid induced ocular hypertension (IOP). It is filed as in vivo, human. Conditions: patients (n=15) with glucocorticoid induced ocular hypertension; 1% eye drops topically three times per day for up to 12 weeks; glucocorticoid medication continued; IOP before treatment 29 mm Hg; significantly reduced. The method, then:
Patients (η=15) with documented glucocorticoid induced ocular hypertension were treated topically with 1% anecortave acetate eye drops three times per day for up to 12 weeks. The patients continued to receive their glucocorticoid medication.

For the compound `CC(=O)OCC(=O)[C@@]1(O)CC[C@H]2[C@@H]3CCC4=CC(=O)CC[C@]4(C)C3=CC[C@@]21C` [anecortave acetate, 4,9(11)-pregnadien-17α,21-diol-3,20dione-21-acetate], the “IOP after anecortave acetate treatment” value was 19-22 mm Hg.
